{
  "source": "paper PMC7038139",
  "about": "“Novel Peptide CM 7 Targeted c-Met with Antitumor Activity” (Molecules, 2020)",
  "key": {"U87 cells": {"test_system": "U87 cells", "experiment": "Cell proliferation assay, U87 (HGF-stimulated)", "type": "cell-based, human", "conditions": "Crizotinib 40 nM, positive control; 20 ng/mL HGF; 4 days", "procedure": "(§1) Human gastric cancer cell line MKN-45 cells were from the Chinese Academy of Medical Sciences, Beijing, China. Human gastric cancer cell line MKN-28 cells, the human glioma cell line U87 cells, and MDCK cells were obtained from the American Type Culture Collection (ATCC). The MKN-45 and MKN-28 cells were grown under a humidified atmosphere of 5% CO2 at 37 °C in RPMI 1640 medium (Biological Industries, Israel), supplemented with 10% fetal bovine serum (FBS, Biological Industries, Israel), 2 mmol/L L-glutamine (Gibco, Life Technologies, Grand Island, NY, USA), 100 U/mL penicillin, and 100 μg/mL streptomycin (Invitrogen, Carlsbad, CA, USA). MDCK and U87 cells were cultured under a humidified atmosphere of 5% CO2 at 37 °C in Dulbecco’s modified Eagle’s medium (DMEM) (Gibco, Life Technologies, Grand Island, NY, USA), supplemented with 10% FBS, 2 mmol/L L-glutamine (Gibco, Life Technologies, Grand Island, NY, USA), 100 U/mL penicillin, and 100 μg/mL streptomycin (Invitrogen, Carlsbad, CA, USA).\n(§2) As described in the literature, MKN-45, MKN-28, and U87 cells were seeded into 48-well culture plates (6500 cells/well) and cultured overnight. […] After 4 days, the cells were trypsinized and counted by a cell counter. […]"}, "MKN-45 cells": {"test_system": "MKN-45 cells", "experiment": "Cell proliferation assay, MKN-45", "type": "cell-based, Human", "conditions": "Crizotinib 40 nM, positive control; 4 days", "procedure": "as §1, §2"}, "MKN-28 cells": {"test_system": "MKN-28 cells", "experiment": "Cell proliferation assay, MKN-28", "type": "cell-based, Human", "conditions": "Crizotinib 40 nM, positive control; 4 days", "procedure": "as §1, §2"}, "[1]": {"test_system": "c-Met-positive MKN-45 cells", "experiment": "Flow cytometry binding to c-Met-positive MKN-45 cells", "parameters": "species or system Human", "conditions": "1 μM, 1 h, room temperature", "procedure": "as §1\n(§3) A flow cytometry assay was used to evaluate the conjugation and affinity of the newly designed peptides CM 7, CM 14, or FITC alone to c-Met-positive MKN-45 cells and c-Met-negative MKN-28 cells. Briefly, MKN-45 and MKN-28 cells were detached by 0.25% trypsin and the final cell concentration was adjusted to 3 × 10^6 cells/mL. […]"}, "[2]": {"test_system": "c-Met-negative MKN-28 cells", "experiment": "Confocal microscope imaging of binding to MKN-28 cells", "parameters": "species or system Human", "conditions": "MKN-28 cells (fixed); 1 μM, 1 h, room temperature", "procedure": "as §1\n(§4) MKN-45 and MKN-28 cells were plated separately in a glass-bottom cell culture dish (NEST) with serum-free media overnight. The next day, cells were fixed with 4% paraformaldehyde for 20 min at room temperature. […]"}, "[3]": {"test_system": "c-Met-negative MKN-28 cells", "experiment": "Flow cytometry binding to c-Met-negative MKN-28 cells", "parameters": "species or system Human", "conditions": "1 μM, 1 h, room temperature", "procedure": "as §1, §3"}, "[4]": {"test_system": "c-Met-positive MKN-45 cells", "experiment": "Confocal microscope imaging of binding to MKN-45 cells", "parameters": "species or system Human", "conditions": "MKN-45 cells (fixed); 1 μM, 1 h, room temperature", "procedure": "as §1, §4"}},
  "note": "“Also recorded” adds a separate entry of the source.",
  "data": [
    {"compound": "C[C@@H](Oc1cc(-c2cnn(C3CCNCC3)c2)cnc1N)c1c(Cl)ccc(F)c1Cl", "note": "[Crizotinib, reference compound]", "values": [
      {"measurement": "Inhibition of cell proliferation", "setting": "U87 cells", "value": "significantly inhibit"},
      {"measurement": "Inhibition of cell proliferation", "setting": "MKN-45 cells", "value": "significantly inhibit"},
      {"measurement": "Inhibition of cell proliferation", "setting": "MKN-28 cells", "value": "significantly inhibit"}
    ]},
    {"compound": "O=C1OC2(c3ccc(O)cc3Oc3cc(O)ccc32)c2ccc(N=C=S)cc21", "note": "[FITC, Fluorescein isothiocyanate isomer]", "values": [
      {"measurement": "Binding by flow cytometry (in words)", "setting": "[1]", "value": "hardly combined"},
      {"measurement": "Binding / fluorescent signal by confocal imaging", "setting": "[2]", "value": "could not bind to MKN-45 or MKN-28 cells; also recorded: did not show any fluorescent signals"},
      {"measurement": "Binding by flow cytometry (in words)", "setting": "[3]", "value": "hardly combined"},
      {"measurement": "Binding / fluorescent signal by confocal imaging", "setting": "[4]", "value": "could not bind to MKN-45 or MKN-28 cells"}
    ]}
  ]
}
